Experimental data: US7070917B1, “Determination of sperm concentration and viability for artificial insemination” (priority 2000, dated 2006)

How the values were obtained:
sperm cells = assay: Toxicity of SYBR-14 staining to sperm cells (decrease in live sperm cells over time); assay type: cell-based
bull sperm = assay: Flow cytometric (FACSCount) determination of sperm viability over staining time in bull ejaculates; assay type: cell-based; settings: FACSCount blue laser (488 nm); SYBR-14 50 nM with PI 12 μM; replicates at 4 and 6 min staining, room temperature
Method: A two-step dilution is necessary for the flow cytometric analyses. First, the sample is diluted 250× in a PBS medium containing 0.1% BSA, (NUNC Intermed Cat# 3478880, Lifetechnologies, Roskilde, Denmark), and second a 20 μl sample is transferred to a Sperm Count tube containing approximately 100,000 beads using reverse manual pipetting. The dyes were added to the Sperm Count tubes less than 12 hours before using the tubes in the analysing procedure. As mentioned above, two different flow cytometers were used, one being a FACSCount equipped with a green (543 nm) laser and the second being a FACSCount equipped with a blue (488 nm) laser.
To each Sperm Count tube to be analysed in the first FACSCount (543 nm), 2 μl of MPR71292 and 2 μl of EHD-2 were added to provide final concentrations of 100 nM and 5 μM, respectively.
To each Sperm Count tube to be analysed in the second FACSCount (488 nm), 5 μl of SYBR-14 and 5 μl of PI were added to provide for final concentrations of 50 nM and 12 μM, respectively.
Prior to opening the Sperm Count tubes, the tubes were whirlmixed for 3 sec in an upside-down position and for 3 sec in a normal position. Whirlmixing were repeated for two sec after addition of the sperm and before each analysis. […] After 4 min, the first replicates were analysed simultaneously on the two flow cytometers and the second replicates were analysed after a 6 min staining period. […]

SYBR-14
decrease in the amount of live sperm cells (sperm cells; SYBR-14 below standard concentrations (25 to 75 nanomolar, about 50 nanomolar)): no decrease
decrease in the amount of live sperm cells (sperm cells; SYBR-14 concentration of 100 nM): 0.6 % pr minute
toxicity to spermatozoa (sperm cells; standard concentrations (100 nM), staining time 10 to 15 minutes): slightly toxic
decrease in sperm viability over time (bull sperm): −0.15±0.07 %/min
